Data as given in patent US20220204510A1, “2,3-DIHYDRO-1H-PYRROLIZINE-7-FORMAMIDE DERIVATIVE AND APPLICATION THEREOF” (CHIA TAI TIANQING PHARMACEUTICAL GROUP CO., LTD., priority 2018, published 2022).

Key:
hepatitis B virus = assay: In vivo efficacy in the HDI/HBV mouse model; details: HDI/HBV mice
From the text: Experimental objective: to assay the efficacy of the compound against hepatitis B virus in mice through the HDI/HBV mouse model.
Preparation of compound: the solvent was an aqueous solution containing 10% polyethylene glycol-15 hydroxystearate; a certain amount of the test compounds 18 and 25 were separately dissolved in an aqueous solution containing 10% polyethylene glycol-15 hydroxystearate, and the mixtures were vortexed and sonicated to prepare uniform suspensions. The suspensions were stored at 4° C. for later use.
High pressure injection of the HBV plasmid DNA solution via the tail vein of mice: the day of plasmid injection was day 0, the day after injection was day 1, and so on. On day 0, all mice were injected with normal saline containing 10 μg of plasmid DNA via their tail veins at a dose of 8% of body weight, and the injection was completed within 5 s.
Administration: all mice were administered intragastrically twice a day (8/16 h interval) on day 1-6 and once on day 7. All mice were euthanized in the afternoon on day 7. The body weight of the mice, which was monitored every day, remained stable throughout the experiment.
Sample collection: blood was collected from the submandibular vein 4 h after the first administration in the morning on days 1, 3, and 5. All blood samples were collected in K2-EDTA anticoagulation tubes, and centrifuged for 10 min at 4° C., 7000 g to prepare about 40 μL of plasma. All mice were euthanized by CO2 four hours after administration in the morning on day 7. Blood was collected from the heart, and the plasma preparation method was the same as above. Two liver tissues were collected with 70-100 mg each, and quick-frozen by liquid nitrogen. After all samples were collected, they were stored in a −80° C. refrigerator for HBV DNA content detection.
Sample analysis: all plasma samples and liver samples were detected for HBV DNA by qPCR.

[1] = Experiment on cytotoxicity (CellTiter-Glo, 3 days); type: cell-based; details: 3 days incubation, read-out: 50% cytotoxic concentration (CC50)
Description: • 1. The compound was diluted with DMSO (dimethyl sulfoxide) in a 3-fold gradient for 9 concentrations, and added into a 96-well plate in duplicate. The compound concentration was 200-fold of the final test concentration. • 2. The cells were rinsed with PBS (phosphate buffered saline) once, added with 0.25% trypsin and digested for about 2-5 min in a 37° C., 5% CO2 incubator. Then the digestion was terminated with a cell culture medium and the cells were dispersed into single cells by pipetting with a pipettor. • 3. The cell density was counted with a cell counter, and adjusted to the required density with the medium. • 4. The cells were added into a 96-well plate that had been added with the compound. The final concentration of DMSO in each well was 0.5%. Wells containing 0.5% DMSO were used as non-toxic negative controls, and wells containing the cell culture medium were used as 100% cytotoxicity controls. Then the cell plate was incubated in a 37° C., 5% CO2 cell incubator for 3 days. • 5. The chemiluminescence signal (RLU, relative chemiluminescence unit) of each well in the cell plate was detected with the cell viability detection kit CellTiter-Glo using the multi-functional microplate reader Envision, with instructions on the kit followed. • 6. The raw data (RLU) were substituted into the following formula to calculate the cell viability of each well (cell viability %): […]

[2] = Experiment on the liver-to-blood ratio in Balb/c mice, oral administration; type: in vivo; details: oral 3 mg/kg, Balb/c female mice; for AUC0-last: Liver; for Kp / AUC(0-t): mouse; for Kp: liver (tissue homogenate) / plasma, read-out: AUC Ratio (L/P) Liver/plasma exposure ratio; for AUC(0-t): Plasma
Description: Experiment on the liver-to-blood ratio in Balb/c mice orally administered with the test compound Compound 18 was mixed with an aqueous solution containing 10% polyethylene glycol-15 hydroxystearate, and the mixture was vortexed and sonicated to prepare a 0.3 mg/mL uniform suspension for later use. Balb/c female mice aged 7 to 10 weeks were orally administered with the candidate compound solution at a dose of 3 mg/kg. Whole blood at a certain time point was collected and plasma was prepared. Liver tissues at the corresponding time point were collected to prepare a tissue homogenate. Drug concentration was analyzed by LC-MS/MS and pharmacokinetic parameters were calculated with Phoenix WinNonlin software. Compound 25 was mixed with an aqueous solution containing 10% polyethylene glycol-15 hydroxystearate, and the mixture was vortexed and sonicated to prepare a 0.3 mg/mL clear solution for later use. Balb/c female mice aged 7 to 10 weeks were orally administered with the candidate compound solution at a dose of 3 mg/kg. Whole blood at a certain time point was collected and plasma was prepared. Liver tissues at the corresponding time point were collected to prepare a tissue homogenate. Drug concentration was analyzed by LC-MS/MS and pharmacokinetic parameters were calculated with Phoenix WinNonlin software.

[3] = Pharmacokinetic study in Balb/c mice by oral administration and intravenous injection; type: in vivo; details: mouse, plasma, Balb/c female mice; for bioavailability / AUC / Cmax / Tmax: 3 mg/kg; for bioavailability: PO (3 mpk) vs IV (1 mg/kg), read-out: Bioavailability F; for AUC / Cmax / Tmax: PO (3 mpk); for AUC: read-out: Area under the plasma concentration-time curve AUC; for Cmax: read-out: Peak concentration Cmax; for Tmax: read-out: Peak time Tmax; for Vd / AUC(0-t) / clearance / half-life: IV (1 mg/kg); for Vd: read-out: Apparent volume of distribution Vdss; for AUC(0-t): read-out: Area under the plasma concentration-time curve AUC0-24 h; for clearance: read-out: Clearance CL; for half-life: read-out: Half-life T1/2 (converted)
Description: Pharmacokinetic study of the test compound in Balb/c mice by oral administration and intravenous injection: The test compound was mixed with a solution containing dimethyl sulfoxide (10%), polyethylene glycol 400 (60%) and water (30%), and the mixture was vortexed and sonicated to prepare a 0.2 mg/mL clear solution, which was filtered through a millipore filter for later use. Balb/c female mice aged 7 to 10 weeks were intravenously injected with the candidate compound solution at a dose of 1 mg/kg. The test compound was mixed with an aqueous solution containing 10% polyoxyethylene stearate, and the mixture was vortexed and sonicated to prepare a 0.3 mg/mL clear solution for later use. Balb/c female mice aged 7 to 10 weeks were orally administered with the candidate compound solution at a dose of 3 mg/kg. Whole-blood was collected and plasma was prepared. Drug concentration was analyzed by LC-MS/MS and pharmacokinetic parameters were calculated with Phoenix WinNonlin software.

[4] = 30 mg/kg intragastrically twice a day
[5] = 10 mg/kg intragastrically twice a day

| SMILES | HBV-DNA reduction Liver (day 7) (hepatitis B virus; [4]) | HBV-DNA reduction Plasma (day 5) (hepatitis B virus; [4]) | CC50 at 3 days [1] [µM] | AUC0-last [2] [nmol·h/kg] | Kp [2] | AUC(0-t) [2] [nM·h] | bioavailability [3] [%] | AUC [3] [nM·h] | Cmax [3] [µM] | Tmax [3] [h] | Vd [3] [L/kg] | AUC(0-t) [3] [nM·h] | clearance [3] [L/h/kg] | half-life [3] [h] | HBV-DNA reduction Liver (day 7) (hepatitis B virus; [5]) | HBV-DNA reduction Plasma (day 5) (hepatitis B virus; [5]) |
| --- | --- | --- | --- | --- | --- | --- | --- | --- | --- | --- | --- | --- | --- | --- | --- | --- |
| C[C@]1(NC(=O)C(=O)c2c(Cl)c(C(=O)Nc3ccc(F)c(F)c3)c3n2CCC3)CC[C@H](CC(=O)O)CC1 [Compound 18] | 1.99 Δ Log10 copies/100 ng | 2.84 Δ Log10 copies/μL | > 50 | 75412 | 20.4 | 3690 | 271 | 5020 | 1.46 | 0.5 | 8.8 | 617 | 3.01 | 2.8 |  |  |
| C[C@]1(NC(=O)C(=O)c2c(Cl)c(C(=O)Nc3cc(F)c(F)c(F)c3)c3n2CCC3)CC[C@H](CC(=O)O)CC1 [Compound 25] | 2.36 Δ Log10 copies/100 ng | 3.57 Δ Log10 copies/μL | > 50 | 86036 | 24.7 | 3480 | 51 | 2270 | 1.48 | 0.5 | 3.1 | 1490 | 1.2 | 1.95 | 0.94 Δ Log10 copies/100 ng | 2.0 Δ Log10 copies/μL |
